Test results as given in ChEMBL document CHEMBL1141089, “Conformationally restricted homotryptamines. 2. Indole cyclopropylmethylamines as selective serotonin reuptake inhibitors” (J Med Chem, 2005).
“And” between values parts separate entries of the source, which are not always exact repeats. Identical values can stand only once.

Legend:
[1] = target: T1, Sodium-dependent serotonin transporter (Homo sapiens, UniProt P31645); test: Binding inhibition towards human serotonin transporter
[2] = target: T2, Sodium-dependent dopamine transporter (Homo sapiens, UniProt Q01959); test: Binding inhibition towards human dopamine transporter at 1 uM
T2 sequence (Q01959 whole entry): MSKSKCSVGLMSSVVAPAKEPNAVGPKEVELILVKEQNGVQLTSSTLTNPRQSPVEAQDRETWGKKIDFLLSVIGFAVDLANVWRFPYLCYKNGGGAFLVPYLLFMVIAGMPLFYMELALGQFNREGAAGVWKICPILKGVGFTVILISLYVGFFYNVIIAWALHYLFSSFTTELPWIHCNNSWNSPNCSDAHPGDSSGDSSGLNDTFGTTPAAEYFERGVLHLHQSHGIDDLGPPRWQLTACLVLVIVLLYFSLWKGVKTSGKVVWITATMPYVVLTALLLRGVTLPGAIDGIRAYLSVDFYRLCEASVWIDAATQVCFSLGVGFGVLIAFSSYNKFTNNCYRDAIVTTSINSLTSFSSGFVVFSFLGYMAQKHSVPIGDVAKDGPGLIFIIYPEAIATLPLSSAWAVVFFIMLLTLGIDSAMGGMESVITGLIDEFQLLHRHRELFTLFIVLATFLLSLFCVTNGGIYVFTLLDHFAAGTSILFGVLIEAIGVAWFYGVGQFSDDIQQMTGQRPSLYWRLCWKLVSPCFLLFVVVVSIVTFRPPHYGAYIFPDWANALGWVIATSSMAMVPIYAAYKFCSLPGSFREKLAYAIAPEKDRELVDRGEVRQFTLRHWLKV

[3] = target: T3, Sodium-dependent noradrenaline transporter (Homo sapiens, UniProt P23975); test: Binding inhibition towards human norepinephrine transporter at 1 uM
T3 sequence (P23975 whole entry): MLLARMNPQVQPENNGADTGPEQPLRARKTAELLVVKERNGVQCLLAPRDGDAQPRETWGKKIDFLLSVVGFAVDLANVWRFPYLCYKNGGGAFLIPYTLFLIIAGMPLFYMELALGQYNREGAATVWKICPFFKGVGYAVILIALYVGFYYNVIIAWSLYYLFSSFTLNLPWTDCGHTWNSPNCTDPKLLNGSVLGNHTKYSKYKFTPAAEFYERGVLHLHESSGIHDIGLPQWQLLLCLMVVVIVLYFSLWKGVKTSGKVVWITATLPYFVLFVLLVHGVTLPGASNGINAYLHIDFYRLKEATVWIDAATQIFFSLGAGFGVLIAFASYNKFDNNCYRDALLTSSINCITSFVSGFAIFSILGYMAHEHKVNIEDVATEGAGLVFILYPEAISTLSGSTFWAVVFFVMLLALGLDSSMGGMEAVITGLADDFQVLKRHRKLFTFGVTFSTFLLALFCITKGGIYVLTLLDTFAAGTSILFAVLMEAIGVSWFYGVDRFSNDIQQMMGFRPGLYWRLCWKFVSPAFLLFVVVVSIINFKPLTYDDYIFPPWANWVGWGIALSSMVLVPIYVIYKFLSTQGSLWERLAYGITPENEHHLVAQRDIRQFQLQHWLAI

[4] = target: T3, Sodium-dependent noradrenaline transporter; test: In vitro binding affinity towards human norepinephrine transporter
[5] = target: T1, Sodium-dependent serotonin transporter; test: In vitro binding inhibition towards human serotonin transporter
[6] = target: T2, Sodium-dependent dopamine transporter; test: Binding inhibition towards human dopamine transporter

T1 sequence (P31645 whole entry): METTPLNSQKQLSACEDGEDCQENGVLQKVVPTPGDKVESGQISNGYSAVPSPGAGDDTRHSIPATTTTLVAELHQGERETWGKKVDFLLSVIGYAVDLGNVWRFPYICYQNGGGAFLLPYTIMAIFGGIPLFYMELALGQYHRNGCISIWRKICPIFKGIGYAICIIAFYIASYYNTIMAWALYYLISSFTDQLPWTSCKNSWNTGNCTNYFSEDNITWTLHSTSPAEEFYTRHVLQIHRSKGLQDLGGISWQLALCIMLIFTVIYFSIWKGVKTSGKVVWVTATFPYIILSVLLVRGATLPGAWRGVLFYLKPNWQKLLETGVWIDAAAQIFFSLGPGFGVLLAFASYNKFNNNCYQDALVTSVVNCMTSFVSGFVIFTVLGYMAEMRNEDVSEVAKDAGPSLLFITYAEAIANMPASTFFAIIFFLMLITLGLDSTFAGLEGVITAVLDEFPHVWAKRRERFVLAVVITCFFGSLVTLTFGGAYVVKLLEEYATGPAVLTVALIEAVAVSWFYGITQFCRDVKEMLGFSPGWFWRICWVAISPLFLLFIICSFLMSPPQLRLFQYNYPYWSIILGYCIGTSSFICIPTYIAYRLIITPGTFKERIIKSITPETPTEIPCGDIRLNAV

SMILES	Ki [1]	inhibition [2] [%]	inhibition [3] [%]	Ki [4] [nM]	Ki [5] [nM]	Ki [6] [nM]
CN(C)C[C@H]1C[C@@H]1c1c[nH]c2ccc(F)cc12 [listing 1 of 2 here]	0.68 nM	–	–	–	–	–
CN(C)C[C@@H]1C[C@@H]1c1c[nH]c2ccc(C#N)cc12 [listing 1 of 3 here]	7.1 nM	–	–	–	–	–
CN(C)C[C@H]1C[C@@H]1c1c[nH]c2cc(F)ccc12 (racemic)	38 nM	< 50	< 50	–	–	–
CN(C)C[C@H]1C[C@H]1c1c[nH]c2ccc(C#N)cc12	5.7 nM	< 50	< 50	–	–	–
CN(C)C[C@@H]1C[C@@H]1c1c[nH]c2ccc(F)cc12 (stereo in doubt; (-)-16e) [listing 1 of 2 here]	–	< 50	< 50	–	–	–
CN(C)C[C@@H]1C[C@@H]1c1c[nH]c2ccc(F)cc12 (stereo in doubt; 16e) [listing 1 of 2 here]	24 nM	–	–	–	–	–
CN(C)C[C@H]1C[C@@H]1c1c[nH]c2cc(C#N)ccc12 (racemic)	7.4 nM	< 50	< 50	–	–	–
CCn1cc([C@H]2C[C@@H]2CN(C)C)c2cc(C#N)ccc21	1.8 nM	< 50	< 50	–	–	–
CN(C)C[C@H]1C[C@@H]1c1cn(C)c2ccc(C#N)cc12	6.5 nM	< 50	< 50	–	–	–
CN(C)C[C@@H]1C[C@@H]1c1c[nH]c2ccc(C#N)cc12 [listing 2 of 3 here]	17 nM	–	–	–	–	–
CN(C)C[C@H]1C[C@@H]1c1c[nH]c2ccc(F)cc12 (racemic) [listing 1 of 2 here]	2.1 nM	–	–	–	–	–
CN(C)C[C@H]1C[C@@H]1c1c[nH]c2cccc(C#N)c12 (racemic)	230 nM and 420 nM	–	–	–	–	–
CN(C)C[C@@H]1C[C@@H]1c1c[nH]c2ccc(C#N)cc12 [listing 3 of 3 here]	–	< 50	< 50	–	–	–
CN(C)C[C@H]1C[C@@H]1c1c[nH]c2c(F)cccc12 (racemic)	10 nM	< 50	< 50	–	–	–
CN(C)C[C@H]1C[C@@H]1c1c[nH]c2c(C#N)cccc12 (racemic)	0.58 nM	< 50	< 50	–	–	–
CN(C)C[C@@H]1C[C@H]1c1c[nH]c2ccc(F)cc12	41 nM	< 50	< 50	–	–	–
CN(C)C[C@@H]1C[C@@H]1c1c[nH]c2ccc(F)cc12 (stereo in doubt; (-)-16e) [listing 2 of 2 here]	14 nM	–	–	–	–	–
CN(C)CCCc1c[nH]c2ccc(C#N)cc12	2 nM	< 50	< 50	–	–	–
CN(C)C[C@H]1C[C@@H]1c1c[nH]c2ccc(F)cc12 (racemic) [listing 2 of 2 here]	–	< 50	< 50	–	–	–
CN(C)C[C@H]1C[C@H]1c1c[nH]c2ccc(F)cc12	100 nM	–	–	–	–	–
CN(C)C[C@@H]1C[C@H]1c1c[nH]c2ccc(C#N)cc12	8.9 nM	< 50	< 50	–	–	–
CN(C)C[C@H]1C[C@@H]1c1c[nH]c2ccc(F)cc12 [listing 2 of 2 here]	–	< 50	< 50	–	–	–
CN(C)C[C@H]1C[C@@H]1c1c[nH]c2ccc(C#N)cc12 (racemic) [listing 1 of 2 here]	–	< 50	< 50	–	–	–
CN(C)CCCc1c[nH]c2ccc(F)cc12	4 nM	< 50	< 50	–	–	–
CN(C)C[C@@H]1C[C@@H]1c1c[nH]c2ccc(F)cc12 (stereo in doubt; 16e) [listing 2 of 2 here]	–	< 50	< 50	–	–	–
CN(C)C[C@H]1C[C@@H]1c1c[nH]c2cccc(F)c12 (racemic)	59 nM	< 50	< 50	–	–	–
CN(C)C[C@H]1C[C@@H]1c1c[nH]c2ccc(C#N)cc12 (racemic) [listing 2 of 2 here]	0.56 nM	–	–	–	–	–
CN(C)C[C@H]1C[C@@H]1c1c[nH]c2ccc(C#N)cc12	–	–	–	4600	0.18	2100
